# Experimental data reported in publication PMC3716919, “Oxidative stress disruption of receptor-mediated calcium signaling mechanisms” (Journal of Biomedical Science, 2013).
# Where “and” joins values, the source holds several entries; their conditions need not be identical. Equal values may be shown once. Entries after “also recorded” stand apart in the source; their conditions may differ.
# What was measured:
# [1] = tested on: store-operated calcium entry (SOCE) channels; assay: Store-operated calcium entry (SOCE) in CHO-M3 cells (fura-2 imaging); format: cell-based, Chinese hamster; details: for acute effect of direct SOCE channel inhibitors on SOCE: added after activation of SOCE by 10 μM carbamylcholine, honokiol 30 μM in insert, unpublished observations; for initial rate of rise of [Ca2+]i in response to reintroduction of calcium: control cells
# [2] = target: T1, human M3 muscarinic acetylcholine receptor (Homo sapiens, UniProt P20309); format: cell-based
# T1 construct: CHO cells expressing the human M3 muscarinic acetylcholine receptor open reading frame; host or cells: CHO cells, stably transfected (CHO-M3)
# T1 sequence (P20309 whole entry): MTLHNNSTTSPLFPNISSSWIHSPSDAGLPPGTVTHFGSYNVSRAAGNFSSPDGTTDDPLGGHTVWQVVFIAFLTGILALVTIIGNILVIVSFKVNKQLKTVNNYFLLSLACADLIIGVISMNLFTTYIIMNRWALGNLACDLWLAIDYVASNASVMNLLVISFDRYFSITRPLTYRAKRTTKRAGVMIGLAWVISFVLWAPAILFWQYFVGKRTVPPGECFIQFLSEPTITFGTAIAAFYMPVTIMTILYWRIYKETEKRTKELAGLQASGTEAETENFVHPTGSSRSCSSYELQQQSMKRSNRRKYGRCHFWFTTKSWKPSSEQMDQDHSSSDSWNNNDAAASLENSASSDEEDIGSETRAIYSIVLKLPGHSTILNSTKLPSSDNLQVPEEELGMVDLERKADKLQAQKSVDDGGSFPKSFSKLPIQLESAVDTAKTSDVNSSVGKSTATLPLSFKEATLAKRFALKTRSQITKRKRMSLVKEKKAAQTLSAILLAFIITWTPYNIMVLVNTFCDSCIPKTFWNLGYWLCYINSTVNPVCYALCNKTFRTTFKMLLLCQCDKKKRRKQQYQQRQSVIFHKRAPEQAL
# [3] = target: T2, human M3 muscarinic receptor (Homo sapiens, UniProt P20309); format: binding
# T2 construct: CHO cells expressing the human M3 muscarinic acetylcholine receptor open reading frame; host or cells: CHO cells, stably transfected (CHO-M3)
# T2 sequence (P20309 whole entry): as above
# Description: (§1) In some experiments, the cells were exposed to 2 mM tBHP for 90 min before harvesting. Binding was determined by filtering the suspension through glass fiber filters (1 μm pore size) and measuring the amount of radioactivity bound to membranes trapped on the filters by liquid scintillation counting.
# (§2) Binding parameters were averaged from 3 independent experiments. […] 5′-Guanylyl-imidodiphosphate (Gpp(NH)p) was included in some experiments to assess receptor – G protein interactions.
# [4] = target: T3, human M2 muscarinic receptor (Homo sapiens, UniProt P08172); assay: [3H]N-methylscopolamine dissociation from M2 receptors expressed in CHO cells; format: binding
# T3 sequence (P08172 1-466): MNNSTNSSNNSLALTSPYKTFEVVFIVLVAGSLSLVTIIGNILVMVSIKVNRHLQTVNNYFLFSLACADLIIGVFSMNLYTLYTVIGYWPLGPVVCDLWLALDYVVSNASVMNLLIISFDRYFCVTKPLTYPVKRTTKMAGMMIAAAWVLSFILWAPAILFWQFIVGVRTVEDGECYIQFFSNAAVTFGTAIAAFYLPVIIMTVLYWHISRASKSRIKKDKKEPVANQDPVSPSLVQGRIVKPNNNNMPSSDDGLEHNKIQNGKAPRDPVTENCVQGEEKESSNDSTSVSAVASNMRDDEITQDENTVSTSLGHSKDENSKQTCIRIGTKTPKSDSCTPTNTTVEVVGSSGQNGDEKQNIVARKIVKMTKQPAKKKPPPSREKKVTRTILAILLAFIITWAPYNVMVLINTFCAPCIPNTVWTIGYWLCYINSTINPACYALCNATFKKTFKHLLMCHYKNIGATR
# Description: as §1, §2
# Muscarinic receptors can also be regulated by ligands that bind to an allosteric site. […] Accordingly, we measured ligand dissociation from muscarinic receptors after exposure to 2 mM tBHP for 90 min (Figure 9).
# CHO-M3 cells [5] = assay: Resting cytosolic calcium concentration in CHO-M3 cells (fura-2 imaging); format: cell-based, Chinese hamster
# CHO-M3 cells [6] = assay: Reactive oxygen species, DCFDA fluorescence; format: cell-based, Chinese hamster; details: 90 min exposure
# Description: The concentration of reactive oxygen species (ROS) was determined by the […] of 2′,7′-dichlorodihydrofluorescein (DCFDA; Sigma). CHO-M3 cells were plated on a 96 well plate with opaque walls at a density of 30,000 cells/well, and incubated overnight in phenol red-free media. Following a 90 min exposure to tBHP, the media was removed and the cells were washed with BSS. DCFDA (100 μl of a 40 μM solution) was added, and the plate was incubated for 1 h before measuring fluorescence at 485 nm excitation/520 nm emission using a FLUOstar plate reader.
# CHO-M3 cells [7] = assay: Endoplasmic reticulum luminal calcium (Mag-Fura 2, saponin-permeabilized cells); format: cell-based, Chinese hamster
# Description: The concentration of Ca^2+ in the lumen of the ER ([Ca^2+]L) was measured using the low-affinity calcium indicator, Mag-Fura 2 (Molecular Probes). […] The media was removed and the cells rinsed with BSS and then incubated with Mag-Fura 2 (50 μM) for 60 minutes at room temperature. Mag-Fura 2 was removed and the cells incubated for an additional 30 minutes. Prior to imaging, the BSS was removed and replaced with Ca^2+- and Mg^2+-free BSS. During imaging, the cells were permeabilized by exposure to 0.005% saponin for 70 seconds to release cytosolic calcium. This caused a rapid decrease in total fluorescence intensity following excitation at both 340 and 380 nm, but elimination of the pervasive cytosolic signal allowed detection of ER lumen calcium levels 30 seconds after saponin addition. Following stabilization of the signal (≈100 sec), R340/380 was averaged for 10 seconds in approximately 20 cells on each plate.
# CHO-M3 cells [8] = assay: Thapsigargin-induced release of calcium from the ER in CHO-M3 cells (fura-2 imaging)
# [9] = 90 min exposure, extracellular calcium present
smiles,measurement,setting,value
NCCOB(c1ccccc1)c1ccccc1 [2-aminoethoxydiphenylborane],acute effect of direct SOCE channel inhibitors on SOCE,[1],immediate reductions in SOCE; also recorded: immediate reduction of SOCE
same,effect on all calcium responses to carbamylcholine,[2],completely blocked
"Nc1nc2c(ncn2[C@@H]2O[C@H](COP(=O)(O)OP(=O)(O)NP(=O)(O)O)[C@@H](O)[C@H]2O)c(=O)[nH]1 [Gpp(NH)p, 5′-Guanylyl-imidodiphosphate]",effect on carbamylcholine inhibition curves of [3H]MS binding,[3],shifted the inhibition curves to the right
"Cl.O=S(=O)(c1cccc2c(Cl)cccc12)N1CCCNCC1 [ML 9, 1-(5-chloronaphthalenesulfonyl)homo piperazine hydrochloride]",acute effect of direct SOCE channel inhibitors on SOCE,[1],immediate reduction of SOCE
"C[N+]1(C)[C@@H]2CC(OC(=O)[C@H](CO)c3ccccc3)C[C@H]1[C@@H]1O[C@@H]12 (stereo partly shown) [[^3H]MS, [^3H]N-methylscopolamine]","k−1, rate constant for [3H]MS dissociation",[4],0.027 ± 0.004 min⁻¹ and 0.021 ± 0.006 min⁻¹
same,"k−1, rate constant for [3H]MS dissociation, with gallamine",[4],0.004 ± 0.001 min⁻¹ and 0.005 ± 0.002 min⁻¹
C[N+](C)(C)CCOC(N)=O.[Cl-] [carbamylcholine],initial rate of rise of [Ca2+]i in response to reintroduction of calcium,"[1]; after carbamylcholine in calcium-free medium, 2 mM calcium reintroduced",24 ± 8 nM/s
C=CCc1ccc(O)c(-c2ccc(O)c(CC=C)c2)c1 [honokiol],acute effect of direct SOCE channel inhibitors on SOCE,[1],immediate reductions in SOCE; also recorded: immediate reduction of SOCE
"CC(C)(C)OO [tBHP, tert-butyl hydroperoxide]",resting [Ca2+]i after exposure (control 26 nM),"CHO-M3 cells [5]; 20 mM tBHP, 90 min, 2 mM extracellular calcium",127 nM
same,resting [Ca2+]i after exposure (control 26 nM),"CHO-M3 cells [5]; 0.5-10 mM tBHP, 90 min (abstract)",up to 127 nM
same,resting calcium concentration after exposure,"CHO-M3 cells [5]; 90 min exposure, Figure 3a",> 100 nM
same,effect on ability of carbamylcholine to inhibit [3H]MS binding,[3],not affected
same,effect on atropine-induced dissociation of M3 receptor-[3H]MS complex and on gallamine slowing of dissociation,[3],had no effect
same,effect on [3H]MS binding affinity,[3]; 2 mM for 90 min,not affected
same,acute effect on calcium entry after activation of SOCE,[1]; 20 mM added at 120 sec after 10 μM carbamylcholine,did not block calcium entry
same,depression of SOCE after thapsigargin,"[1]; 90 min exposure, 0.5-5 mM, dose-dependent, calcium reintroduced (2 mM)",30-70%
same,effect on ability of thapsigargin-induced calcium release to evoke SOCE,"[1]; 90 min exposure, 0.5-20 mM, extracellular calcium present",severely compromised
same,"effect on ability to maintain the higher level of [Ca2+]i (plateau, SOCE)",[1]; [9],compromised in a concentration-dependent manner
same,threshold concentration for ROS production,CHO-M3 cells [6],5 mM
same,increase in ROS,CHO-M3 cells [6]; at 10 mM tBHP,up to 400%
same,effect on allosteric receptor actions,[4]; 2 mM for 90 min,not affected
same,decrease of [Ca2+]L,"CHO-M3 cells [7]; 90 min exposure, 0.5-10 mM (abstract)",55%
same,"[Ca2+]L, % of control levels",CHO-M3 cells [7]; pretreatment 1-20 mM for 90 min,≈ 55 % of control
same,inhibition of the initial thapsigargin-stimulated release of calcium from the ER,"CHO-M3 cells [8]; 90 min exposure, all concentrations 0.5 to 5 mM, calcium-free medium",50%
same,effect on the response to M3 receptor activation,"[2]; 90 min exposure, all concentrations at or above 1 mM, no extracellular calcium",depressed
same,effect on the initial calcium response to carbamylcholine,[2]; [9],not significantly affected
C/C=C(/C)C(=O)O[C@H]1C(C)=C2[C@H]([C@@H]1OC(=O)CCCCCCC)[C@@](C)(OC(C)=O)C[C@H](OC(=O)CCC)[C@@]1(O)[C@H]2OC(=O)[C@@]1(C)O [thapsigargin],initial rate of rise of [Ca2+]i in response to reintroduction of calcium,[1]; after 1 μM thapsigargin in calcium-free medium,40.0 ± 5.1 nM/s
same,initial rate of rise of [Ca2+]i in response to thapsigargin,"CHO-M3 cells [8]; control cells, 1 μM thapsigargin, extracellular calcium present",4.3 ± 0.6 nM/s
